Reference: patent US6165493A, “"Methods and compositions for decreasing the frequency of HIV, herpesvirus and sexually transmitted bacterial infections"” (New York Blood Center, Inc., priority 1998, dated 2000)
Peptide text beside a SMILES is read from it.

Tested on: HIV-1
Assay: inhibition of fusion between HIV-1 IIIB infected H9 cells and uninfected MT-2 cells
Format: cell-based
Settings: Human immunodeficiency virus 1, MT2, 1 h, read-out: Inhibition of Cell Fusion ED50 ± SD (effective dose for 50% inhibition of HIV-1 induced cell fusion); Table 1A; -- = none at 1000 μg/ml

| Compound | IC50 |
| --- | --- |
| CCCCOC(=O)c1ccc(O)cc1 [Butylparaben] | > 1000 µg/mL |
| Cc1occc(=O)c1O [Maltol] | > 1000 µg/mL |
| CC1=CC(=O)NS(=O)(=O)O1 [Acesulfame Potassium] | > 1000 µg/mL |
| O=C(NCNC(=O)NC1C(=O)NC(=O)N1CO)NC1C(=O)NC(=O)N1CO (centres unmarked) [Imidurea] | > 1000 µg/mL |
| O=[N+]([O-])C(Br)(CO)CO [Bronopol] | > 1000 µg/mL |
| CCOC(=O)c1ccc(O)cc1 [Ethylparaben] | > 1000 µg/mL |
| CC(=O)OCC(COC(C)=O)OC(C)=O [Triacetin] | > 1000 µg/mL |
| CC1COC(=O)O1 (centres unmarked) [Propylene Carbonate] | > 1000 µg/mL |
| CCCCCCCCCCCCCCCC(=O)OC[C@H](O)[C@H]1OC(=O)C(O)=C1O [Ascorbyl Palmitate] | > 1000 µg/mL |
| Cc1cc(O)ccc1Cl [Chlorocresol] | > 1000 µg/mL |
| O=C(OCc1ccccc1)c1ccccc1 [Benzyl Benzoate] | > 1000 µg/mL |
| CCCCOC(=O)CCCCCCCCC(=O)OCCCC [Dibutyl Sebacate] | > 1000 µg/mL |
| CC1CCC(C(C)C)C(O)C1 (centres unmarked) [Menthol] | > 1000 µg/mL |
| O=C1NS(=O)(=O)c2ccccc21 [Saccharin] | > 1000 µg/mL |
| CCCCCCCCCCCCCCCCCCOC(=O)/C=C/C(=O)[O-].[Na+] [Sodium Stearyl Fumarate] | > 1000 µg/mL |
| COc1cc(C=O)ccc1O [Vanillin] | > 1000 µg/mL |
| CCCOC(=O)c1cc(O)c(O)c(O)c1 [Propyl Gallate] | > 1000 µg/mL |
| COC(=O)c1ccc(O)cc1 [Methylparaben] | > 1000 µg/mL |
| C/C=C/C=C/C(=O)O [Sorbic Acid] | > 1000 µg/mL |
| COC(=O)[C@H](Cc1ccccc1)NC(=O)[C@@H](N)CC(=O)O [Aspartame] (HELM PEPTIDE1{D.F.[CO[*:1]]}$$$$V2.0) | > 1000 µg/mL |
| O=S(=O)(O)NC1CCCCC1 [Sodium Cyclamate] | > 1000 µg/mL |
| CCCOC(=O)c1ccc(O)cc1 [Propylparaben] | > 1000 µg/mL |
| Cc1cc(C(C)(C)C)c(O)c(C(C)(C)C)c1 [Butylated Hydroxytoluene] | > 1000 µg/mL |

Tested on: HIV-1
Assay: disintegration of HIV-1 measured by release of p24
Parameters: species or system HIV-1 IIIB
Settings: 5 minutes at 37° C.
Description: With respect of FIG. 3, serial dilutions of untreated and treated HIV-1 were tested for p24 by ELISA. As a positive control, HIV-1 treated with the detergent NP40 was also tested. The results obtained with the "[…]"-glycerol formulation containing PVP and Crospovidone and N-40 were identical and indicated an 100-fold increase of released p24 antigen, as compared to background levels corresponding to untreated virus. The infectivity of HIV-1 was also eliminated by treatment with the "[…]"-glycerol formulation containing PVP and Crospovidone.
To determine whether or not the CAP Formulations affect the integrity of HIV-1, a preparation of purified virus (strain IIIB; 5 μl; 1.52×10^10 virus particles/ml; Advanced Biotechnologies, Columbia, Md.) was mixed with 45 μl of 0.14 M NaCl and 50 μl of the respective CAP Formulation, each prewarmed to 37° C. After 5 minutes at 37° C., 400 μl of 0.14 M NaCl were added, and the mixture was filtered through a 0.45μ filter prewashed with 0.14 M NaCl, 0.01 M Tris pH 7.2, 0.02 NaN3 (TS). Serial 5-fold dilutions of the filtrate were tested by ELISA for the p24 antigen, as described above. In control experiments, either untreated HIV-1 IIIB or virus treated with the detergent NP40 (final concentration 5 mg/ml; 5 minutes at 37° C.) were equally diluted and tested for the p24 antigen. […]

| Compound | increase of released p24 antigen compared to untreated virus |
| --- | --- |
| NP40 | 100 fold |

Tested on: HIV-1
Assay: not given
Settings: cited from earlier work

| Compound | in vitro inactivation of HIV-1 |
| --- | --- |
| nonoxynol-9 [N-9] | shown to inactivate in vitro |

Tested on: HSV-2
Assay: not given
Settings: cited from earlier work

| Compound | in vitro inactivation of HSV-2 |
| --- | --- |
| nonoxynol-9 [N-9] | shown to inactivate in vitro |

Tested on: Chlamydia trachomatis
Assay: not given
Settings: cited from earlier work

| Compound | in vitro inactivation of Chlamydia trachomatis |
| --- | --- |
| nonoxynol-9 [N-9] | shown to inactivate in vitro |

Tested on: not given
Assay: not given
Settings: some N-9 formulations; cited from earlier work

| Compound | clinical adverse effects |
| --- | --- |
| nonoxynol-9 [N-9] | adverse effects |

Tested on: heterosexual HIV-1, gonorrhea and chlamydia transmission
Assay: not given
Settings: one of the N-9 formulations; cited from earlier work

| Compound | efficacy in decreasing rate of heterosexual HIV-1, gonorrhea and chlamydia transmission |
| --- | --- |
| nonoxynol-9 [N-9] | lack of efficacy |
